Test results: patent US20240209036A1, “PEPTIDES AND METHODS OF USE” (priority 2021, published 2024)
Where “and” joins values, the source holds several entries; their conditions need not be identical. Identical values can stand only once. Ends that are not written are not given here.

Legend:
[1] = test system: cecal ligation and puncture (CLP) rat model of intestinal necrosis; test: Cecal ligation and puncture (CLP) survival model; type: in vivo; settings: for survival, multi-dose regimen: CLP rats, 40 mg/kg at 0.5, 24, 48 and 72 hours after surgery
Protocol: The previously established CLP model was utilized with modifications. Male Long-Evans rats (250-300 grams) were induced using 5% isoflurane with oxygen and anesthesia was maintained by isoflurane delivered via nose cone at 1.5-2% with oxygen. Adequate anesthesia was confirmed with a toe pinch. The surgical area (lower abdominal quadrants) was shaved, cleaned with 10% iodine and subsequently cleaned with 70% ethanol for a total of three times. For pain management, buprenorphine-SR (1 mg/kg) was given subcutaneously pre-op. For the surgical procedure, animals were in the supine position with their heads oriented away from the operator. After placing a sterile drape, a longitudinal midline incision (approximately 3-4 cm) was made with a sterile scalpel. After the initial incision, small scissors were used to enter the peritoneal cavity. The linea alba of the abdominal musculature was dissected away for intermuscular incision of fascial and peritoneal layers. The cecum was located and exteriorized, the remainder of the bowel was left in the peritoneal cavity. The mesentery of the cecum was dissected away with care taken to avoid damage to the cecal branch of the ileocecal artery and avoid bleeding complications. The cecum was ligated at 75% using sterile 3-0 non-absorbable suture. The cecum was perforated twice by through-and-through punctures using a sterile 18-gauge needle midway between the ligation and the tip of the cecum in a mesenteric-to-antimesenteric direction. The cecum was relocated into the abdominal cavity. The peritoneum was closed using 4-0 non-absorbable sutures and the skin was closed with sterile metallic wound clips. The animals received 5 mL of prewarmed (37° C.) normal saline subcutaneously for recovery. […] The peptide, consisting of the amino acid sequence […] (SEQ ID NO: 2) with a monodisperse, 24mer polyethylene glycol (PEG) tail, was manufactured by PolyPeptide Group (San Diego, CA) to >95% purity as verified by HPLC and mass spectrometry analysis. Lyophilized RLS-0071 was solubilized in 0.05 M Histidine buffer and pH adjusted to 6.5. […] Animals were monitored every 30 minutes for at least two hours post-surgery. Once bright, alert, and responsive, the animals were placed back into their home cage. A quantitative assessment of morbidity was conducted on the animals twice a day for the duration of the study. (Shrum, B., Anantha, R. V., Xu, S. X. et al. A robust scoring system to evaluate sepsis severity in an animal model. BMC Res Notes 7, 233 (2014). https://doi.org/10.1186/1756-0500-7-233). Scoring criteria included appearance, level of consciousness, activity, response to stimulus, eyes open vs. closed, respiration rate and respiration quality. […] The animals were subsequently monitored at a minimum of twice/day. […]

complement system = settings: previously demonstrated in vitro assays; cited from earlier work
[2] = test system: free DNA in plasma (biomarker for NETs); test: Plasma free DNA by PicoGreen in CLP rats; type: in vivo, rat; settings: single dose RLS-0071, 24 hours post-surgery
Protocol: (§1) Blood samples were collected before surgery (pre-bleed) and 24 hours after surgery. Plasma was isolated from the blood and analyzed for free DNA concentration and cytokines levels as described below.
Free DNA was measured by PicoGreen in rat plasma samples as previously described Briefly, plasma samples were diluted in 10 mM Tris-HCl, 1 mM EDTA, pH 8.0 (TE) buffer and 50 uL of each sample was added to the wells along with 50 uL of a 1:200 dilution of PicoGreen (Life Technologies, Carlsbad, CA, USA) and incubated at room temperature for 10 minutes, protected from light. A DNA standard curve was prepared in TE buffer. The fluorescence was then read at an excitation wavelength of 485 nm and an emission wavelength of 520 nm using a BioTek microplate reader. All free DNA measurements were done in triplicate.

IL-6 = test: Plasma IL-6 ELISA in CLP rats; type: in vivo, rat; settings: single dose RLS-0071, 24 hours post-surgery
Protocol: as §1
The Rat IL-6 ELISA was purchased from R&D Systems. Plasma samples from experimental animals were run according to the manufacturer's instructions. Briefly, diluted rat plasma samples were added to wells pre-coated with capture IL-6 antibodies overnight. The plate was blocked for 60 min at room temperature with 1% BSA. 100 uL of plasma samples (diluted 1:4) or standards was added to the plate and incubated at room temperature for 2 hrs, then any unbound components were removed by washing. Next, 100 μL of detection IL-6 antibody (diluted 1:60) was added and incubated for 2 hrs at room temperature and washed. Next, 100 μL of streptavidin-horseradish peroxidase (HIRP) conjugate (diluted 1:40) was added and incubated in the dark for 20 minutes at room temperature. Following washing, 100 μL of 3,3′,5,5′-tetramethylbenzidine (TMB) substrate was added for approximately 5 minutes at room temperature. The reaction was stopped with the addition of 100 μL of sulfuric acid and absorbance measured at 450 nm using a BioTek microplate reader. Sample concentrations were calculated using an IL-6 standard curve made with 1:2 serial dilutions.

Substance | survival, multi-dose regimen [1] | inhibition of the complement system (complement system) | level of free DNA in blood compared to animals not receiving treatment [2] | IL-6 level in blood compared with no-rescue-intervention animals (IL-6) | survival ([1]; male Long-Evans rats, 75% CLP, single dose 40 mg/kg i.v. 30 minutes after surgery, assessed up to 5 days, 40 mg/kg) | increase in survival compared to no-rescue treatment group ([1]; single dose 40 mg/kg i.v. 30 minutes after surgery)
IALILEP(Sar)CCQERAA (IALILEPXCCQERAA; sarcosine at position 8; MOD_RES (8)..(8) Sarcosine) [RLS-0088, PA peptide with isoleucine at position 8 replaced by sarcosine] | increase in survival |  |  |  |  | 
IALILEPICCQERAA-PEG24 (IALILEPICCQERAA-dPEG24; cysteine pairing not given here) [RLS-0071, 15 amino acid peptide with a C-terminal monodisperse 24-mer PEGylated moiety] | significant increase in survival | strong inhibition of the complement system | reduction in the level of free DNA | reduction in IL-6 | 80% and 50% | 2.5 fold
